Experimental data: ChEMBL document CHEMBL1201862, “PubChem BioAssay data set” (2004)
Values joined by “and” are separate entries in the source; they are usually repeats but may differ in a detail not shown here. Identical values can stand only once. Active and inactive are the calls of the source.

What was measured:
[1] = viability of uninfected HEp-2 cells – cell-based, HTS, cytotoxicity control for RSV inhibitor project, dose response (AID 2410); assay type: functional; details: human respiratory syncytial virus
Melanocortin receptor 4 = Melanocortin receptor 4 (Homo sapiens, UniProt P32245); assay: inhibitors of MC4R cAMP signaling – cell-based, TR-FRET, biased antagonists, dose response (AID 602298); assay type: functional;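 also: antagonist potency against agonist-stimulated cAMP production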
Sequence of Melanocortin receptor 4 (P32245 whole entry): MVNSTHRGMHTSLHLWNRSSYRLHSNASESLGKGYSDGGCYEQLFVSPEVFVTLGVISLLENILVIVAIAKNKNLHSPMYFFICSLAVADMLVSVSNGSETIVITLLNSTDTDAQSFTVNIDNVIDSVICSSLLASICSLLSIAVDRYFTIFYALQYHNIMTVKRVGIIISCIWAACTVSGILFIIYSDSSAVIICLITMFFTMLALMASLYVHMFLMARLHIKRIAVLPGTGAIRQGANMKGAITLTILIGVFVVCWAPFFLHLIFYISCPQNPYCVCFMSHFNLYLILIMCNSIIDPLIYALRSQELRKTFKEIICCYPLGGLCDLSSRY

[2] = cAMP pathway inhibition in counterscreen cell line – TR-FRET cAMP detection, counter-screen for MC4R biased antagonist project, dose response (AID 602305); assay type: functional, cell-based;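 also: U2OS cells stimulated with forskolin near its EC80 as the cAMP inducer; potency is for inhibition of forskolin-stimulated cAMP signaling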
Cytochrome P450 2D6 = Cytochrome P450 2D6 (Homo sapiens, UniProt P10635);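 also: CYP2D6 member of a cytochrome P450 panel assay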
Sequence of Cytochrome P450 2D6 (P10635 whole entry): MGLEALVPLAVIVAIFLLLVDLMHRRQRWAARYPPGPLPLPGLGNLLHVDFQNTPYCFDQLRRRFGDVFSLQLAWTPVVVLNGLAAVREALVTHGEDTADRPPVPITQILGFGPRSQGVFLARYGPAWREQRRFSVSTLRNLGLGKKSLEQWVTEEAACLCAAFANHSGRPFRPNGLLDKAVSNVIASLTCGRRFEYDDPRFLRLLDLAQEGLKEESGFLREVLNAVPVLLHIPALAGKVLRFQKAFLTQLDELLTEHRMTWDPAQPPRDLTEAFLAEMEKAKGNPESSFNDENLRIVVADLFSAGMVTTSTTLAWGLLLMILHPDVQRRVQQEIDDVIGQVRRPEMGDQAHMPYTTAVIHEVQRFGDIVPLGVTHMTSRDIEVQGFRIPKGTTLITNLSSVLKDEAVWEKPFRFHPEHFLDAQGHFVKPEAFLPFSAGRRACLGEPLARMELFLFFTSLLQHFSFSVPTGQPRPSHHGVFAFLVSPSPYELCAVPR

[3] = biological target: Melanin-concentrating hormone receptor 1 (Homo sapiens, UniProt Q99705); assay: Late-stage fluorescence-based counterscreen for antagonists of the G-protein coupled receptor 7 (GPR7): cell-based dose response assay to identify antagonists of the melanin-concentrating hormone receptor 1 (MCHR1) Set 6.; assay type: functional
Sequence of Melanin-concentrating hormone receptor 1 (Q99705 whole entry): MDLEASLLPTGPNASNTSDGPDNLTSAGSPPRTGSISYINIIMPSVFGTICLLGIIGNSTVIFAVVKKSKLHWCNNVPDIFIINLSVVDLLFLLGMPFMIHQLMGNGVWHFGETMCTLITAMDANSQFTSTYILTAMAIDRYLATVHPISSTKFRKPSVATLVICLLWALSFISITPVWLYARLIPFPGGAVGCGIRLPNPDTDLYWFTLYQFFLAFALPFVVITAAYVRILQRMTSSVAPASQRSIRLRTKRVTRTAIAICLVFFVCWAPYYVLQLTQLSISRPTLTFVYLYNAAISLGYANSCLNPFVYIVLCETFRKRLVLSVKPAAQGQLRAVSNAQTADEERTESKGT

[4] = biological target: T1, Neuropeptides B/W receptor type 1 (Homo sapiens, UniProt P48145); assay: human NPBW1 receptor blockade, IC50 – cell-based, fluorescence, dose response, set 6, late-stage follow-up (AID 588583); assay type: functional
T1 sequence (P48145 whole entry): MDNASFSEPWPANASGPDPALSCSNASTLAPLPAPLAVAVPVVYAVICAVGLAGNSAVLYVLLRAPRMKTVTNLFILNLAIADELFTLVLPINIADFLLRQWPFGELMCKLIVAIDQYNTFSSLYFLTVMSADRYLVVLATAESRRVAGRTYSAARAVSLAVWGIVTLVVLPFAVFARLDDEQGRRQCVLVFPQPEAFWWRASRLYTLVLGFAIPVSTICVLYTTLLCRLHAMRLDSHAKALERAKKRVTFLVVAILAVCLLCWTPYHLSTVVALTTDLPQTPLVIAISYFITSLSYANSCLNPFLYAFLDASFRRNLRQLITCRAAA

H9c2 = assay: cells; assay type: functional, cell-based; details: Rattus norvegicus, H9c2, Myocardium;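 also: confirmatory concentration-response retest of ultra-high-throughput screening hits for modulation of myocardial damage; cell death induced by hydrogen peroxide oxidative stress; compound pretreatment for 60 min then peroxide exposure for 2 h; potency is for protecting the cells against peroxide damage rather than for killing them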

Row | SMILES | IC50 [3] | IC50 [4] | CC50 [1] | IC50 (Melanocortin receptor 4) | IC50 [2] | AC50 (Cytochrome P450 2D6) | IC50 (cells) | IC50 (H9c2)
1 | COc1ccc(OC)c(C2C3=C(O)CCCC3=NC(C)=C2C(=O)Nc2nc3ccccc3s2)c1 (centres undefined) | – | – | 23.1 µM (active) | 12.6 µM (inactive) | > 64.6 µM (inactive) | 22.4 µM (inconclusive) | 9.83 µM (active) | –
2 | CCN(C[C@H]1N[C@@](CC)(C(=O)OC)[C@H]2C(=O)N(Cc3ccccc3)C(=O)[C@@H]12)C(=O)c1ccc(C(C)(C)C)cc1 | – | – | – | > 64.6 µM (inactive) | > 64.6 µM (inactive) | – | – | > 79 µM (inactive)
3 | CC(C)c1ccc(C(C#N)c2c(Cl)cnn(Cc3cccc4ccccc34)c2=O)cc1 (centres undefined) | 253 nM (active) and 1.62 µM (active) | 253 nM (active) and 1.62 µM (active) | – | – | – | – | – | –

More lines, main results first:

Row | IC50 [3] | IC50 [4] | SMILES | CC50 [1] | IC50 (Melanocortin receptor 4) | IC50 [2] | AC50 (Cytochrome P450 2D6) | IC50 (cells) | IC50 (H9c2)
4 | 553 nM (active) | 553 nM (active) | N#Cc1cccc(C(C#N)c2c(Cl)cnn(Cc3cccc4ccccc34)c2=O)c1 (centres undefined) | – | – | – | – | – | –
5 | > 20000 nM (inactive) | > 20000 nM (inactive) | CCn1ccc2ccc(Oc3c(Cl)cnn(Cc4cccc5ccccc45)c3=O)cc21 | – | – | – | – | – | –
